In patent US20140227408A1, “MEAT TREATMENT AND PRESERVATION METHOD” (RED MEAT AS, priority 2011, published 2014):
Marks after values point to notes of the source that are not given here.

Columns and labels:
[1] = Colour L*, a*, b* of treated ground beef, high oxygen packaging (Example 5); design: species or system cattle; settings: citrate High level
From the text: (§1) Beef M. semimembranosus (M.S.) and beef fat tissue were collected four days post mortem (Fatland A/S, Oslo, Norway). The packaging day is defined as day zero, however, the tissues were 4 days post mortem on packing day. A piece of meat from proximal end was cut from each muscle in order to measure oxygen consumption, pH and surface colour. Fat tissue from pigs fed rapeseed and vitamin E to enhance the content of polyunsaturated fatty acids were from HKScan (Ruokatalo, Finland). The fat tissue was transported vacuum-packaged and frozen. Samples of minced fat tissue were removed for fatty acid analysis.
(§2) The beef muscles were cut into pieces of approximately 10×5 cm and mixed to 14% w/w fat by using the fat tissues. Beef fat and pork fat tissues were ground twice with either raw beef from four young (16-19 months) or four old (46-81 months) cattle. […] The ground meat was blended manually with solutions (all at pH 5.8) with various TCA and glycolytic ingredients (see below).
(§3) To maintain pH at 5.8 the solutions were prepared by mixing the acid form and the corresponding sodium salt of these chemicals.
(§4) 40 g of 0.1 M or 0.05 M solutions were added to ground beef-fat mixture (360 g) to a total weight of 400 g. The solution was quickly and properly stirred into the minced meat and the blended system was subsequently packaged. […] Two reference samples with 40 ml of distilled water added to 360 gram of ground beef were also prepared each of the four production day, i.e. altogether 8 references were prepared. The samples were packaged in either low or high oxygen atmosphere.
(§5) The ground beef was packaged in black amorphous polyethylene terephthalate (APET) trays that were sealed with ethylene vinyl alcohol (EVOH) top films. The trays and films (Wipak Multipet and Wipak Biaxer, both Wipak, Nastola, Finland) had oxygen transmission rates of 7 and 5 cm^3/m^2/24 h at 23° C. at 50% relative humidity. Packaging was carried out within 1 hour after grinding. The samples were stored in darkness at 4° C. for 8 days in a high-oxygen atmosphere (75% oxygen and 25% CO2) and for 13 days in a low-oxygen atmosphere (60% CO2 and 40% N2). These food grade gas mixtures were supplied by AGA (Oslo, Norway).
The colour of the ground meat samples was measured with a Konica Minolta Chroma Meter CR 410 (Konica Minolta Sensing Inc., Osaka, Japan) using the glass light projection tube CR A 33e with wide illumination area (61 mm) and illuminant D65. The instrument was calibrated each day by measuring a white ceramic plate (L*=97.9; a*=0.05; b*=2). All colour measurements were made with 3 replicates (CIE, 1976, “Recommendations on uniform colour spaces-colour difference equations” (Vol. Supplement No. 2 to CIE). Paris, France: Commission Internationale de l'Eclairage).
(§6) The colour of the samples packaged in high O2 was measured after 0, 1, 3, 6 and 8, days of storage from packaging day, while low O2 samples were measured at 0 to 13 days of storage using Minolta and reflectance measurements.
The experimental design is visualized in FIG. 5. A 2^2 design (animal age and type of fat tissue) was split over 4 experimental days (FIG. 5, and Tables 10 and 11). […] 5.

myoglobin in ground beef = assay: Myoglobin states (DMb, OMb, MMb) by reflectance spectra of treated ground beef, low oxygen packaging (Example 5); design: species or system cattle; settings: for DMb / MMb / OMb: citrate High level (0.025 mol/kg), low oxygen, adjusted mean ± standard error
From the text: as §1, §2, §3, §4, §5
Samples were scanned, […], with a Foss NIRSystems OptiProbe™ 6500 Analyzer (Foss NIRSystems Inc., Maryland, USA) without opening of the package. The package was turned upside-down before measurements so that the meat would fall on the packaging film. The samples were scanned with three random placements of the probe on the package surface in order to increase the scanning area and reduce the measurement errors. Thirty-two scans for both reference and samples were acquired and averaged on each measured area. All measurements were performed at room temperature (approx. 20° C.) according to Khatri, et al. (Meat Sci. (2012) 91(3): 223-231). These spectra were used to predict OMb, MMb and DMb levels. Calibration was performed using comminuted meat with 10% w/w added water.
as §6
The statistical analysis was performed according to the approach described by Langsrud et al. (J. Appl. Statist. (2007) 34:1275-1296) and implemented in the 50-50 MANOVA software (http://www.langsrud.com/stat/program.htm). This program handles mixture designs as generalized categorical variables (generalized ANOVA). When using this method one can always formulate equivalent models that use the individual mixture variables as ordinary (one degree of freedom) regression variables. Then one arbitrary mixture variable has to be omitted (slack variable).

[2] = Day 1, adjusted mean ± standard error
[3] = Day 3, adjusted mean ± standard error
[4] = Day 6, adjusted mean ± standard error
[5] = Day 8, adjusted mean ± standard error

In the case of O=C(O)CC(O)(CC(=O)O)C(=O)O [Citrate], the “L*” value [1, 2] is reported as 34.2 ± 0.3, the “a*” value [1, 2] is reported as 13.0 ± 0.2* and the “b*” value [1, 2] is reported as 4.5 ± 0.1*. The “L*” value [1, 3] was 33.6 ± 0.3*, the “a*” value [1, 3] was 12.3 ± 0.2* and the “b*” value [1, 3] was 4.4 ± 0.1*. The “L*” value [1, 4] was 33.8 ± 0.3, the “a*” value [1, 4] was 11.0 ± 0.3 and the “b*” value [1, 4] was 4.1 ± 0.2*. The “L*” value [1, 5] was 33.9 ± 0.3, the “a*” value [1, 5] was 10.3 ± 0.2 and the “b*” value [1, 5] was 4.0 ± 0.1*. It also gave a DMb (myoglobin in ground beef; Day 1) of 42.1 ± 3.3 %, an MMb (myoglobin in ground beef; Day 1) of 50.2 ± 3.0 % and an OMb (myoglobin in ground beef; Day 1) of 7.8 ± 0.4 %. The DMb (myoglobin in ground beef; Day 3) was 55.5 ± 3.3 %, the MMb (myoglobin in ground beef; Day 3) was 39.1 ± 3.1 % and the OMb (myoglobin in ground beef; Day 3) was 5.5 ± 0.4%. For the same molecule, the DMb (myoglobin in ground beef; Day 6) was 64.9 ± 3.1%, the OMb (myoglobin in ground beef; Day 6) was 3.7 ± 0.4% and the DMb (myoglobin in ground beef; Day 8) was 66.6 ± 3.1%. It also gave an OMb (myoglobin in ground beef; Day 8) of 4.1 ± 0.4%, a DMb (myoglobin in ground beef; Day 10) of 69.9 ± 3.0% and an MMb (myoglobin in ground beef; Day 10) of 26.3 ± 2.9 %. It also gave an OMb (myoglobin in ground beef; Day 10) of 3.8 ± 0.3%, a DMb (myoglobin in ground beef; Day 13) of 72.3 ± 4.1 % and an MMb (myoglobin in ground beef; Day 13) of 23.9 ± 3.8 %. The OMb (myoglobin in ground beef; Day 13) was 3.8 ± 0.5 % and the “effect on myoglobin states (DMb, OMb, MMb), in words” value (myoglobin in ground beef; low oxygen packaging) was “increased OMb and MMb while the DMb was reduced”.
